Compound | melting point
N#Cc1ccc2c(c1)NCc1ccccc1O2 | 104 to 105 °C
C=CCC1(CCNC(=O)C2CC2)c2cc(OC)ccc2CCC12OCCO2 (stereo unspecified) | 94 to 95 °C
Cc1ccc(Cl)c(C2CC(=O)c3c(C)ccnc3C2)c1 (stereo unspecified) | 123 to 124 °C
Cc1nc2c3ccccc3ccn2c1CN1CCN(CCO)CC1 | 115 to 117 °C
O=C(c1ccc(F)cc1)C1CC2CCN1CC2 (stereo unspecified) | 68 to 69 °C
CNC(=O)C1=C(C)OC(C)=C(C(=O)NC)C1c1ccc(Cl)cc1 | 256 to 259 °C
Cc1cc(-c2nnn(C)n2)cc(C)c1OCCCC(O)c1nccn1C (stereo unspecified) | 151 to 154 °C
O=C(NCCCc1ccncc1)N(CCC12CC3CC(CC(C3)C1)C2)CC1CCCC1 | 155 to 158 °C
CCN(CC)CCNC(=O)c1ccc(NC(=O)c2ccc3c(c2)OCO3)cc1OC | 131 °C
CC1(C)C2CCC1(C(=O)P(=O)(c1ccccc1)c1ccccc1)C(=O)C2=O (stereo unspecified) | 92.1 °C
c1ccc(-c2nc3ncccc3o2)cc1 | 125 to 127 °C
C(=C\c1nc(COc2ccc(CCCn3ccnc3)cc2)co1)/c1ccccc1 | 127 to 128 °C
Cn1c2ccc(-c3nnn[nH]3)cc2c(=O)c2cccnc21 | 321 °C
CCc1nc2c(N)nc3cccnc3c2n1CC1(O)CCN(C(=O)OC(C)(C)C)CC1 | 233 to 235 °C
NS(=O)(=O)Cc1ccc(NCC(=O)N2CCC(Oc3ccc(Cl)cc3)CC2)cc1 | 180 to 187 °C
O=C(CN1CCN(c2ccccc2F)CC1)Nc1ccc2c(c1NC(=O)c1ccccc1)C(=O)c1ccccc1C2=O | 228 to 229 °C
Cc1nc2nsc(N)c2s1 | 164 to 167 °C
CCCCc1ccc(C(=O)NCCCCn2c(CCOC)nc3c(N)nc4ccccc4c32)nc1 | 54.9 to 55.2 °C

Compound | melting point
CCCCCCCN(CCN1CCN(CCSc2nc3cccc(C(=O)OC)c3o2)CC1)C(=O)Nc1c(C(C)C)cccc1C(C)C | 125 to 126 °C
Cc1cc2c(cc1C(F)(F)F)N(Cc1ccc(C(=O)O)cc1)CCC[C@@H]2N(Cc1cc(C(F)(F)F)cc(C(F)(F)F)c1)c1nnn(C)n1 | 95 to 98 °C
COc1ccc(CN(C)CCc2ccc(NC(=O)c3cccc4c(=O)c5ccccc5n(C)c34)cc2)cc1OC | 182 °C
CCCC[C@H]1CC[C@H](c2ccc(-c3ccc(CCc4ccc(F)cc4)cc3)c(F)c2)CC1 | 68 °C
CCOc1c(C=O)cc2c3c(cccc13)-c1ccccc1-2 | 118 to 119 °C
COc1ccc(CNc2nc(OCc3ccccn3)ncc2C(=O)c2cc(OC)c(OC)c(OC)c2)cc1NC(C)=O | 194 to 196 °C
CCOC(=O)C(C(C)C)S(=O)(=O)c1ccc(OC)cc1 (stereo unspecified) | 53 °C
O=C(N[C@H]1CC[C@H](CCN2CCN(c3nccc4c3CCO4)CC2)CC1)c1ccc(-c2cccnc2)cc1 | 218 °C
Cc1nn(CC(=O)O)cc1C(=O)Nc1ccc(OCC(C)(C)C)c(C#N)c1 | 234 to 245 °C
Cc1cn(-c2ccc(NC(=O)c3ccc(Cl)c(C#Cc4ccc(NC5CCC5)nn4)c3)cc2C(F)(F)F)cn1 | 153 to 155 °C
CN1C[C@]2(C)CC[C@](NCC(=O)N3C[C@@H](F)C[C@H]3C#N)(C1)C2(C)C | 122 to 126 °C
CC(C)(OCCOCc1nn(Cc2ccccc2)c2ccccc12)C(=O)O | 94 to 95 °C
COC(=O)c1ccc(OC(=O)c2ccccc2)cc1O | 103 °C
CC(C)c1ccc(C(=O)C(=O)c2ccccc2)c(C(C)C)c1OS(N)(=O)=O | 106 to 109 °C
COc1ccc(Nc2cc(C)nc(SCC(N)=NO)n2)cc1 | 189 to 191 °C
CCN1CCC2(CC1)COc1cc3c(cc12)N(C(=O)c1ccc(-c2ccc(C(=O)NN)cc2C)cc1)CC3 | 222 to 225 °C
CC(=O)SCC(Cc1ccccc1)C(=O)Nc1cc(C(=O)OCc2ccccc2)ccc1C (stereo unspecified) | 134 to 135 °C
COC(=O)C(Oc1cc(OCc2ccccc2)ccc1C#N)c1ccccc1C (racemic) | 134 to 136 °C
